The results in this text go back to the NIST ThermoML archive (doi:10.1021/je101302p).

Numbers after ± are expanded uncertainties.

The conditions of this series: Liquid; for mass density: 298.15 K, 101.33 kPa, Vibrating tube method.

The mass density is the mass of a sample divided by its volume. As a reminder, the vapor or sublimation pressure is the equilibrium pressure above the liquid or solid. Regarding `CCC(=O)O` [propanoic acid], the mass density is given as 993.722 ± 0.3 kg/m3. Where the note is “414.53 K”, the “vapor or sublimation pressure” value worked out at 101.3 ± 3.4 kPa.

As for `CCCO` [propan-1-ol], the mass density is 804.269 ± 0.19 kg/m3. Also, the “vapor or sublimation pressure” value (370.29 K) was 101.3 ± 3.4 kPa.

In the case of `CCCOC(=O)CC` [propyl propanoate], the mass density is on record as 881.619 ± 0.3 kg/m3. Also, where the note is “395.1 K”, the “vapor or sublimation pressure” value is given as 101.3 ± 1.7 kPa.
